In article PMC4059138, “Structural Basis for Multiple Sugar Recognition of Jacalin-related Human ZG16p Lectin*^([image sbox.jpg])” (The Journal of Biological Chemistry, 2014):
Read-outs that look alike come from different tables or passages of the source. One block for each molecule: values may come before it. No end group written: not given here. *: point of attachment. αMan = OC[C@H]1O[C@H](*)[C@@H](O)[C@@H](O)[C@@H]1O

Experiments:
[1] = molecular target: T1, 15N-labeled human ZG16p(21–167) (Homo sapiens, UniProt O60844); experiment: 1H-15N HSQC NMR titration; format: binding
T1 construct: gene ZG16; residues 21-167 (signal peptide removed), 15N-labelled, E. coli pCold-PDI vector, tag removed as for the other construct; the purification says 21-159 for the same labelled protein; monomer
T1 sequence (O60844 21-167): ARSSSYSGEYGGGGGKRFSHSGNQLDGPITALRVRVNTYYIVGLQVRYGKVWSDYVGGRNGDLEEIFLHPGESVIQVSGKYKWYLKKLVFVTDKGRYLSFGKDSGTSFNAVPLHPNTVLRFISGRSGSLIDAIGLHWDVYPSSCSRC
From the text: 1H-15N HSQC NMR titration on 15N-labeled human ZG16p(21–167)

human ZG16p(21–159) [2] = molecular target: T2, human ZG16p(21–159) (Homo sapiens, UniProt O60844); experiment: X-ray crystallography, soaking, […] Å; details: pH 6.5; mannose-binding pocket
T2 construct: gene ZG16; residues 21-159, expressed in E. coli as (His)6-MBP fusion, tag removed by TEV protease; monomer
T2 sequence (O60844 21-159): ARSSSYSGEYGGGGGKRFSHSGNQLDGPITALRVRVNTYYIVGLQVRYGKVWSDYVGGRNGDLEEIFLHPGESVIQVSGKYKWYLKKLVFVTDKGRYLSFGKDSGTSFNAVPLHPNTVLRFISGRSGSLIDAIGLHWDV

human ZG16p(21–159) [3] = molecular target: T2, human ZG16p(21–159); experiment: X-ray crystallography, soaking, […] Å; details: pH 6.5; mannose-binding pocket; remark: listed apart in the source
[4] = molecular target: T3, Human ZG16p(21–167), 15N-labeled (human, UniProt O60844 21-167, uniformly 15N-labeled); experiment: NMR titration; 1H-15N HSQC of 0.1–0.15 mM 15N-labeled ZG16p with increasing amounts of ligand; 298 K; PBS, pH 6.5, 10% D2O; Kd fitted from chemical shift changes (n = 3); details: both partners purified
T3 construct: zymogen granule protein 16 (ZG16p), human, residues 21-167; the same paragraph also calls the 15N-labeled protein ZG16p(21–159); also called zymogen granule protein 16; 15N-labeled ZG16p; source: E. coli, pCold-PDI vector, 15N-labeled Spectra 9 medium, purified (Ni-Sepharose, size exclusion chromatography)
T3 sequence (looked up): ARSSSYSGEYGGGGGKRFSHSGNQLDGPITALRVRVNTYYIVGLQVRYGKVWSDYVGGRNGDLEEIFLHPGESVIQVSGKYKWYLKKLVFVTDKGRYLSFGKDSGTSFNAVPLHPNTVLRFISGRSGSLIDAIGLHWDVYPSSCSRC

[5] = PBS pH 6.5, 10% D2O, 298 K, mannose-binding pocket

Kd [1, 5]: 7 ± 4 mM
Molecule: OC[C@H]1O[C@@H](O[C@H]2[C@H](O)[C@@H](CO)OC(O)[C@@H]2O)[C@H](O)[C@@H](O)[C@@H]1O (stereo partly shown) [Glcβ1–3Glc]

Molecule: N[C@@H](CO[C@H]1O[C@H](CO)[C@@H](O)[C@H](O)[C@@H]1O)C(=O)O [Man-O-Ser]
X-ray crystallography, soaking, 2.1 Å (human ZG16p(21–159) [2]): structures of human ZG16p in complex with Man-O-Ser and Man-O-Thr were determined

Kd [1]: 19 ± 11 mM
Molecule: C[C@@H](O[C@H]1O[C@H](CO)[C@@H](O)[C@H](O)[C@@H]1O)[C@H](N)C(=O)O [Man-O-Thr]
X-ray crystallography, soaking, 2.7 Å (human ZG16p(21–159) [3]): structures of human ZG16p in complex with Man-O-Ser and Man-O-Thr were determined

Kd [1, 5]: 13 ± 7 mM
Molecule: OC[C@H]1O[C@H](O[C@H]2[C@H](O)[C@@H](CO)OC(O)[C@H]2O)[C@@H](O)[C@@H](O)[C@@H]1O (stereo partly shown) [Manα1–3Man]

Kd ([1]; PBS pH 6.5, 10% D2O, 298 K, heparin site on flat surface adjacent to the mannose pocket): 2 ± 1 mM
Molecule: Heparin tetrasaccharide

Kd [4]: 3 mM
B1: Man-α-O-heptapeptide Val-Glu-Pro-(Man-α-O-Thr)-Ala-Val-Ala (peptide)
peptide: VEPT(αMan)AVA
notes: Glycopeptide; also called Man-O-peptide; source: synthetic peptide (solid phase, Fmoc; HPLC and Sephadex G-15)
